The record followed here is the supplement of paper PMC12317010.

The series in a line: collision cross section in nitrogen (drift tube, single-field); higher = larger gas-phase ion size.
Where [1] appears, read: ion type: [M+H], ion source: ESI, ion mode: Positive.
[2] abbreviates: ion type: [M+H], ion source: APCI, ion mode: Positive.
Setting [3] is: ion type: [M+Na], ion source: ESI, ion mode: Positive.
Where [4] appears, read: ion type: [M+], ion source: APCI, ion mode: Positive.
Setting [5] is: ion type: [M-H], ion source: ESI, ion mode: Negative.
Setting [6] is: ion source: APCI, ion mode: Positive, ion type: [M]+ (permanent cation).
The mark [7] stands for this setting: ion source: ESI, ion mode: Positive, ion type: [M]+ (permanent cation).

Structures can show the parent of a compound that is named as a salt.
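Also: chemical standards at 10 µM analysed by drift tube IMS-QTOF MS in about 3.95 torr nitrogen, mean of duplicate injections differing ≤1%, mass error below 10 ppm.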

On to `CNC(=O)Oc1cccc(N=CN(C)C)c1` [Formetanate hydrochloride], for which, under setting [1], the “collision cross section in nitrogen” value is listed as 156 Å².

Take `COc1ccc(-c2coc3cc(O)ccc3c2=O)cc1` [Formononetin]: the “collision cross section in nitrogen” value is reported as 159.8 Å² under setting [2], 160.3 Å² under setting [1], 171.4 Å² under setting [3] and 156.9 Å² under setting [4].

For `C=C[C@@]1(C)CC(=O)[C@]2(O)[C@@]3(C)[C@@H](O)CCC(C)(C)[C@@H]3[C@H](O)[C@H](OC(C)=O)[C@@]2(C)O1` [Forskolin], the “collision cross section in nitrogen” value under setting [3] is given as 194.3 Å².

Turning to `CCOP(=O)(SC(C)CC)N1CCSC1=O` (centres undefined) [Fosthiazate], the “collision cross section in nitrogen” value under setting [3] is recorded as 168.2 Å².

In the case of `c1coc(-c2nc3ccccc3[nH]2)c1` [Fuberidazole], the “collision cross section in nitrogen” value is 136.1 Å² under setting [2], 136.8 Å² under setting [1] and 138 Å² under setting [5].

Regarding `C[C@]12CC[C@@H]3c4ccc(O)cc4C[C@@H](CCCCCCCCCS(=O)CCCC(F)(F)C(F)(F)F)[C@H]3[C@@H]1CC[C@@H]2O` (some centres undefined) [Fulvestrant], the “collision cross section in nitrogen” value under setting [2] is recorded as 243.5 Å², the “collision cross section in nitrogen” value under setting [1] amounted to 242.9 Å², the “collision cross section in nitrogen” value under setting [3] stood at 247.6 Å² and the “collision cross section in nitrogen” value under setting [5] turned out to be 246.5 Å².

Consider `COC(=O)C(C)N(C(=O)c1ccco1)c1c(C)cccc1C` (centres undefined) [Furalaxyl], for which the “collision cross section in nitrogen” value is recorded as 162.1 Å² under setting [2], 161.4 Å² under setting [1] and 178 Å² under setting [3].

As to `CCCCOC(=O)N(C)SN(C)C(=O)Oc1cccc2c1OC(C)(C)C2` [Furathiocarb], the “collision cross section in nitrogen” value under setting [2] turned out to be 191.3 Å², the “collision cross section in nitrogen” value under setting [1] worked out at 190.5 Å² and the “collision cross section in nitrogen” value under setting [3] turned out to be 195 Å².

On to `O=C1OCCN1N=Cc1ccc([N+](=O)[O-])o1` [Furazolidone], for which the “collision cross section in nitrogen” value under setting [5] is on record as 150.8 Å².

In the case of `NS(=O)(=O)c1cc(C(=O)O)c(NCc2ccco2)cc1Cl` [Furosemide], the “collision cross section in nitrogen” value under setting [5] is recorded as 173 Å².

As to `CCCOC(=O)c1cc(O)c(O)c(O)c1` [Gallic acid n-propyl ester], the “collision cross section in nitrogen” value under setting [5] came to 146.5 Å².

`O=c1c(-c2ccc(O)cc2)coc2cc(O)cc(O)c12` [Genistein]: the “collision cross section in nitrogen” value under setting [2] is 160.3 Å², the “collision cross section in nitrogen” value under setting [1] is 160.3 Å², the “collision cross section in nitrogen” value under setting [3] is listed as 171.3 Å² and the “collision cross section in nitrogen” value under setting [5] was 161.6 Å².

Take `CN(C)c1ccc(C(=C2C=CC(=[N+](C)C)C=C2)c2ccc(N(C)C)cc2)cc1` [Gentian Violet]: the “collision cross section in nitrogen” value is on record as 205 Å² under setting [6] and 205.8 Å² under setting [7].

On to `CC(=O)OC/C=C(\C)CCC=C(C)C` [Geranyl acetate], for which the “collision cross section in nitrogen” value under setting [5] was 151.5 Å².

As for `C=C1C[C@]23C[C@@]1(O)CC[C@H]2[C@@]12C=C[C@H](O)[C@@](C)(C(=O)O1)[C@H]2[C@@H]3C(=O)O` [Gibberellic acid], under setting [5], the “collision cross section in nitrogen” value turned out to be 176.4 Å².

In the case of `COc1ccc(Cl)cc1C(=O)NCCc1ccc(S(=O)(=O)NC(=O)NC2CCCCC2)cc1` [Glybenclamide], the “collision cross section in nitrogen” value by setting is: under setting [1], 206.6 Å²; under setting [3], 217.6 Å²; under setting [5], 213.2 Å².

Consider `CCCCCCCCCCCCCCCCCC(=O)OCC(O)CO` (centres undefined) [Glycerol 1-monostearate], for which the “collision cross section in nitrogen” value under setting [3] was determined as 201.2 Å².

In the case of `CCCCCCCC/C=C\CCCCCCCC(=O)OCC(O)CO` (centres undefined) [Glyceryl monooleate], the “collision cross section in nitrogen” value under setting [3] was 197.2 Å².

Regarding `CCCCCC[C@@H](O)C/C=C\CCCCCCCC(=O)OCC(O)CO` (some centres undefined) [Glyceryl monoricinoleate], under setting [3], the “collision cross section in nitrogen” value was determined as 201.9 Å².

Consider `C[N+](C)(C)CC1CO1` (centres undefined) [Glycidyl trimethylammonium chloride], for which the “collision cross section in nitrogen” value under setting [7] turned out to be 120.7 Å².

For `CCCCCCCCCCCC(=O)N(C)CC(=O)O` [Glycine, N-methyl-N-(1-oxododecyl)-, sodium salt], the “collision cross section in nitrogen” value amounted to 175.8 Å² under setting [3] and 169.5 Å² under setting [5].

For `C[C@H](CCC(=O)NCC(=O)O)[C@H]1CC[C@H]2[C@@H]3[C@H](O)C[C@@H]4C[C@H](O)CC[C@]4(C)[C@H]3C[C@H](O)[C@]12C` [Glycocholic acid], the “collision cross section in nitrogen” value under setting [3] was determined as 201.7 Å² and the “collision cross section in nitrogen” value under setting [5] is recorded as 202.5 Å².

With `CC1(C)[C@@H](O[C@H]2O[C@H](C(=O)O)[C@@H](O)[C@H](O)[C@H]2O[C@@H]2O[C@H](C(=O)O)[C@@H](O)[C@H](O)[C@H]2O)CC[C@]2(C)[C@H]3C(=O)C=C4[C@@H]5C[C@@](C)(C(=O)O)CC[C@]5(C)CC[C@@]4(C)[C@]3(C)CC[C@@H]12` [Glycyrrhizin], the “collision cross section in nitrogen” value is reported as 288.9 Å² under setting [1], 296.2 Å² under setting [3] and 281.7 Å² under setting [5].

With `CCCCCCC(CCCCCCCCCCC(=O)OCC(COC(C)=O)OC(C)=O)OC(C)=O` (centres undefined) [Grinstad Soft-N-Safe], the “collision cross section in nitrogen” value under setting [3] was 225.2 Å².

For the compound `COC1=CC(=O)C[C@@H](C)[C@]12Oc1c(Cl)c(OC)cc(OC)c1C2=O` [Griseofulvin], the “collision cross section in nitrogen” value is given as 182 Å² under setting [2], 181.6 Å² under setting [1] and 189.6 Å² under setting [3].

As for `COc1ccccc1OCC(O)CO` (centres undefined) [Guaifenesin], the “collision cross section in nitrogen” value under setting [3] worked out at 147.2 Å².

As for `Nc1nc2[nH]cnc2c(=O)[nH]1` [Guanine], the “collision cross section in nitrogen” value under setting [1] amounted to 130.3 Å².

On to `O=[N+]([O-])c1cc(N(CCO)CCO)ccc1NCCO` [HC Blue 2], for which the “collision cross section in nitrogen” value under setting [2] is on record as 171.3 Å², the “collision cross section in nitrogen” value under setting [1] worked out at 171.1 Å² and the “collision cross section in nitrogen” value under setting [3] is 177.5 Å².

In the case of `Nc1ccc(NCCO)c([N+](=O)[O-])c1` [HC Red 3], the “collision cross section in nitrogen” value runs as follows: under setting [2], 141.6 Å²; under setting [1], 142.2 Å².

For the compound `CCN(CC)C(=O)c1cc(S(=O)(=O)Cc2ccccc2)c(N2CCC(c3ccccc3)CC2)cc1N(CC)CCN(C)C` [HMR1171 trifluoroacetate (1:1)], the “collision cross section in nitrogen” value is, setting by setting: under setting [2], 249.1 Å²; under setting [1], 249.1 Å²; under setting [3], 251.8 Å²; under setting [5], 250 Å².

On to `OC12N=C(c3ccccc3)SC1Cc1cc(Cl)ccc12` (centres undefined) [HMR1426], for which the “collision cross section in nitrogen” value under setting [2] came out at 167.8 Å² and the “collision cross section in nitrogen” value under setting [1] is 167.9 Å².

For `CC(C)(C)N(NC(=O)c1ccc(Cl)cc1)C(=O)c1ccccc1` [Halofenozide], the “collision cross section in nitrogen” value under setting [3] is recorded as 188.3 Å² and the “collision cross section in nitrogen” value under setting [5] worked out at 178.2 Å².

`O=C(CCCN1CCC(O)(c2ccc(Cl)cc2)CC1)c1ccc(F)cc1` [Haloperidol]: the “collision cross section in nitrogen” value runs as follows: under setting [2], 195.1 Å²; under setting [1], 195.1 Å²; under setting [3], 200.2 Å²; under setting [5], 190.2 Å².

As to `COC(=O)[C@@H](C)Oc1ccc(Oc2ncc(C(F)(F)F)cc2Cl)cc1` [Haloxyfop-P-methyl], the “collision cross section in nitrogen” value was 185.1 Å² under setting [1] and 186.4 Å² under setting [3].

`COC(=O)C(C)Oc1ccc(Oc2ncc(C(F)(F)F)cc2Cl)cc1` (centres undefined) [Haloxyfop-methyl]: the “collision cross section in nitrogen” value by setting is: under setting [1], 184.4 Å²; under setting [3], 185.6 Å².

For the compound `CC(Oc1ccc(Oc2ncc(C(F)(F)F)cc2Cl)cc1)C(=O)O` (centres undefined) [Haloxyfop], the “collision cross section in nitrogen” value is listed as 180 Å² under setting [1] and 190 Å² under setting [5].

Turning to `CCCCCCC(=O)O` [Heptanoic acid], the “collision cross section in nitrogen” value under setting [5] is given as 137.3 Å².

Take `CCCCCCCOC(C)=O` [Heptyl acetate]: under setting [5], the “collision cross section in nitrogen” value is given as 146.8 Å².

As to `COCN(COC)c1nc(N(COC)COC)nc(N(COC)COC)n1` [Hexa(methoxymethyl)melamine], the “collision cross section in nitrogen” value under setting [3] is recorded as 194.1 Å².

`Oc1c(Cl)cc(Cl)c(Cl)c1Cc1c(O)c(Cl)cc(Cl)c1Cl` [Hexachlorophene]: the “collision cross section in nitrogen” value under setting [5] is listed as 174.4 Å².

For the compound `CCCCC(O)(Cn1cncn1)c1ccc(Cl)cc1Cl` (centres undefined) [Hexaconazole], the “collision cross section in nitrogen” value reads like this: under setting [2], 174.6 Å²; under setting [1], 173.5 Å²; under setting [3], 187 Å².

As to `CCCCCCCCCCCCCCCC(=O)O` [Hexadecanoic acid], under setting [5], the “collision cross section in nitrogen” value was determined as 169.2 Å².

`CCCCCCCCCCCCCCCC[N+](C)(C)C` [Hexadecyltrimethylammonium bromide]: the “collision cross section in nitrogen” value is reported as 193.1 Å² under setting [6] and 195.1 Å² under setting [7].

Consider `C=CC(=O)N1CN(C(=O)C=C)CN(C(=O)C=C)C1` [Hexahydro-1,3,5-tris(1-oxoallyl)-1,3,5-triazine], for which the “collision cross section in nitrogen” value under setting [3] was determined as 160.1 Å².

In the case of `CN(C)P(=O)(N(C)C)N(C)C` [Hexamethylphosphoramide], the “collision cross section in nitrogen” value runs as follows: under setting [2], 134.4 Å²; under setting [1], 135.3 Å²; under setting [3], 152.8 Å².

Regarding `O=C(OCCCCCCOC(=O)c1ccccc1)c1ccccc1` [Hexane-1,6-diyl dibenzoate], under setting [3], the “collision cross section in nitrogen” value turned out to be 189.8 Å².

In the case of `NNC(=O)CCCCC(=O)NN` [Hexanedihydrazide], the “collision cross section in nitrogen” value is, setting by setting: under setting [3], 141.5 Å²; under setting [5], 138.4 Å².

Take `O=C(O)CCCCC(=O)O` [Hexanedioic acid]: the “collision cross section in nitrogen” value under setting [5] is 127.9 Å².

As to `CN(C)c1nc(=O)n(C2CCCCC2)c(=O)n1C` [Hexazinone], the “collision cross section in nitrogen” value is 163 Å² under setting [2], 162.8 Å² under setting [1] and 176.3 Å² under setting [3].

`CC[C@H](c1ccc(O)cc1)[C@@H](CC)c1ccc(O)cc1` [Hexestrol]: the “collision cross section in nitrogen” value under setting [5] is on record as 177.2 Å².

On to `CCCCCCOC(=O)CCC` [Hexyl butyrate], for which the “collision cross section in nitrogen” value under setting [5] was found to be 149.7 Å².

For `CCCCCCOC(=O)CC` [Hexyl propanoate], the “collision cross section in nitrogen” value under setting [5] was 146.3 Å².

For `CCCCCCOC(=O)c1ccc(O)cc1` [Hexylparaben], the “collision cross section in nitrogen” value under setting [5] stood at 161.1 Å².

For the compound `CC1(C)CN=C(NN=C(C=Cc2ccc(C(F)(F)F)cc2)C=Cc2ccc(C(F)(F)F)cc2)NC1` [Hydramethylnon], the “collision cross section in nitrogen” value came out at 239.4 Å² under setting [2]; 240.6 Å² under setting [1]; 250.1 Å² under setting [3]; 226.3 Å² under setting [4]; 234.7 Å² under setting [5].
